The values below come from ChEMBL document CHEMBL3991601, “The target landscape of clinical kinase drugs” (Science, 2017).

The source made the active and inactive calls. Cut-off read from the data, not from the text of the source, for most assays here: actives have a measured Kd and inactives only a lower limit.

Assay [1] deals with T1, Peroxisomal acyl-coenzyme A oxidase 3 (Homo sapiens, UniProt O15254).
T1 sequence (O15254 whole entry): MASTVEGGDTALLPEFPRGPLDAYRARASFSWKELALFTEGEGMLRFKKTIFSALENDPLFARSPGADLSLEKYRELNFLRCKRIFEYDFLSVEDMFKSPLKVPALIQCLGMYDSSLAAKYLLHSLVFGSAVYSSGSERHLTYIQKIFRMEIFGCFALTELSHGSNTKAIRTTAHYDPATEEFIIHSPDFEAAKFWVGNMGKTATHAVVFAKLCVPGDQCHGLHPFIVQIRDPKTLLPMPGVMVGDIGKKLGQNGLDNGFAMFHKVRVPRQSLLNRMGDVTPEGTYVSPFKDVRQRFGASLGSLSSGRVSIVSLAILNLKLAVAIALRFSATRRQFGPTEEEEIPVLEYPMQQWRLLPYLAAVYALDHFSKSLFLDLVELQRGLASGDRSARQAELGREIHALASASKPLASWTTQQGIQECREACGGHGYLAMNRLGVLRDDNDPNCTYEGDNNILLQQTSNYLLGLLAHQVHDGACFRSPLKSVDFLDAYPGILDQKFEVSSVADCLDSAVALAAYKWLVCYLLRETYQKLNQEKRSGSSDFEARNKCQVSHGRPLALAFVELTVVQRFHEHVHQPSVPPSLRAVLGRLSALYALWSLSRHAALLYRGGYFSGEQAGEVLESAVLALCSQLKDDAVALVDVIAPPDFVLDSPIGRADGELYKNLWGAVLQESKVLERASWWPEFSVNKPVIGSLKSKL

In assay [2] the target is Tyrosine-protein kinase CSK (Homo sapiens, UniProt P41240).
Tyrosine-protein kinase CSK, sequence (P41240 whole entry): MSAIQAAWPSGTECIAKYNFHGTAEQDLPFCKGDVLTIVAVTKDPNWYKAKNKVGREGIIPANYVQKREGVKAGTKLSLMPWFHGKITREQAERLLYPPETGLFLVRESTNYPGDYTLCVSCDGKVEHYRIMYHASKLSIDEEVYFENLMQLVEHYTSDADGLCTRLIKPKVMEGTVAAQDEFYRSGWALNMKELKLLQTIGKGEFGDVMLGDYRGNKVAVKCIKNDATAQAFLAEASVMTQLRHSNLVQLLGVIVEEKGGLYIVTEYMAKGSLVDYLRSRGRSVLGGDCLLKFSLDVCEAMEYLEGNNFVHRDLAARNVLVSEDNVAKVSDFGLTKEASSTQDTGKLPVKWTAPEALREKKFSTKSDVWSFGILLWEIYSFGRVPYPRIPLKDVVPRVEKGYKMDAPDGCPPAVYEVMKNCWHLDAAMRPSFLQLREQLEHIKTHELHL
Assay [3] concerns the target Calcium/calmodulin-dependent protein kinase type II subunit delta (Homo sapiens, UniProt Q13557).
Assay [4] addresses T2, Breakpoint cluster region protein (Homo sapiens, UniProt P11274).
T2 sequence (P11274 whole entry): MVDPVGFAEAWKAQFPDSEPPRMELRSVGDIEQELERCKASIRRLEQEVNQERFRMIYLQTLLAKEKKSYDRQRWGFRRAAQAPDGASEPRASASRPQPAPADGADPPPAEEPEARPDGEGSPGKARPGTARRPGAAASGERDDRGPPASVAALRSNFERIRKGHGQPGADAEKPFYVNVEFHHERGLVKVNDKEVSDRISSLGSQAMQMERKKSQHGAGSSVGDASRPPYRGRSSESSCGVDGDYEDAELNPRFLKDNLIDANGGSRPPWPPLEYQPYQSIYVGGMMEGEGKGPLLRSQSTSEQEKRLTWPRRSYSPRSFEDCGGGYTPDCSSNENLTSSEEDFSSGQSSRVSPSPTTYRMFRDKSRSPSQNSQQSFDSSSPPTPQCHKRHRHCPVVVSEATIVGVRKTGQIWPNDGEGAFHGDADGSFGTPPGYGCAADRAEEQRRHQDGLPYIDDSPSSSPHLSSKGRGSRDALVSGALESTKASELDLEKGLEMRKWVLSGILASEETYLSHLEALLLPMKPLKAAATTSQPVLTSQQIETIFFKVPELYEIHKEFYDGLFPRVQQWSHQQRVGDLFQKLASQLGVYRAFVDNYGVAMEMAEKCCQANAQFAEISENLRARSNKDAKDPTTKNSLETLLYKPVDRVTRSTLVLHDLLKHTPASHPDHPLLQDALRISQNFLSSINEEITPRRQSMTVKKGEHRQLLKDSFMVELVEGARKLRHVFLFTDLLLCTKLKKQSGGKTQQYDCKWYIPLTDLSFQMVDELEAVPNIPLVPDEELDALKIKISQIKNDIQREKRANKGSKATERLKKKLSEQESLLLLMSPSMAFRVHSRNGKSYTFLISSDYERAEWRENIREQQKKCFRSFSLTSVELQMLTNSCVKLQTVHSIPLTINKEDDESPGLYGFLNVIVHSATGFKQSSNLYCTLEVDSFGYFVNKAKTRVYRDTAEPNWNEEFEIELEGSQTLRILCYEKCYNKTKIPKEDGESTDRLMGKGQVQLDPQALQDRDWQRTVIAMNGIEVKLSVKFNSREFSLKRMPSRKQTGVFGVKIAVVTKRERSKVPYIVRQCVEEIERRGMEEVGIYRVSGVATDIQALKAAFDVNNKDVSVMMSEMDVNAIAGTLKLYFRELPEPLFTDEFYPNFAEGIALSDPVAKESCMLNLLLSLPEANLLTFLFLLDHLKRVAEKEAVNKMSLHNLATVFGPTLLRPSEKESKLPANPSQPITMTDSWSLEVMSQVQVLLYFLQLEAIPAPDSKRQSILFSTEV

In assay [5] the target is Dual specificity protein kinase CLK1 (Homo sapiens, UniProt P49759).
Dual specificity protein kinase CLK1, sequence (P49759 whole entry): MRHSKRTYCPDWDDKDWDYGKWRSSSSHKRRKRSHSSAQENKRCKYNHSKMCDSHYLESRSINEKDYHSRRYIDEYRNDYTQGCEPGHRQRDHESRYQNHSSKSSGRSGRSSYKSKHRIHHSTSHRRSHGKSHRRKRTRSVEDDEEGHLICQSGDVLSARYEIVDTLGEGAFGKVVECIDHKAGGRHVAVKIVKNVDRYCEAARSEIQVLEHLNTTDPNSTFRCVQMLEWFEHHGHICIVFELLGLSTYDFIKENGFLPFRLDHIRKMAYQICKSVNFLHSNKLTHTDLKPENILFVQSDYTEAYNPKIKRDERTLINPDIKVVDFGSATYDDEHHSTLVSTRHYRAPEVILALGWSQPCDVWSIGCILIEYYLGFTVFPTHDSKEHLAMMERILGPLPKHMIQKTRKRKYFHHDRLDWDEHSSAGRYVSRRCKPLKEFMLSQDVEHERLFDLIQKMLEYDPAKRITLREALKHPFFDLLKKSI
The target of assay [6] is T3, ATP-dependent 6-phosphofructokinase, platelet type (Homo sapiens, UniProt Q01813).
T3 sequence (Q01813 whole entry): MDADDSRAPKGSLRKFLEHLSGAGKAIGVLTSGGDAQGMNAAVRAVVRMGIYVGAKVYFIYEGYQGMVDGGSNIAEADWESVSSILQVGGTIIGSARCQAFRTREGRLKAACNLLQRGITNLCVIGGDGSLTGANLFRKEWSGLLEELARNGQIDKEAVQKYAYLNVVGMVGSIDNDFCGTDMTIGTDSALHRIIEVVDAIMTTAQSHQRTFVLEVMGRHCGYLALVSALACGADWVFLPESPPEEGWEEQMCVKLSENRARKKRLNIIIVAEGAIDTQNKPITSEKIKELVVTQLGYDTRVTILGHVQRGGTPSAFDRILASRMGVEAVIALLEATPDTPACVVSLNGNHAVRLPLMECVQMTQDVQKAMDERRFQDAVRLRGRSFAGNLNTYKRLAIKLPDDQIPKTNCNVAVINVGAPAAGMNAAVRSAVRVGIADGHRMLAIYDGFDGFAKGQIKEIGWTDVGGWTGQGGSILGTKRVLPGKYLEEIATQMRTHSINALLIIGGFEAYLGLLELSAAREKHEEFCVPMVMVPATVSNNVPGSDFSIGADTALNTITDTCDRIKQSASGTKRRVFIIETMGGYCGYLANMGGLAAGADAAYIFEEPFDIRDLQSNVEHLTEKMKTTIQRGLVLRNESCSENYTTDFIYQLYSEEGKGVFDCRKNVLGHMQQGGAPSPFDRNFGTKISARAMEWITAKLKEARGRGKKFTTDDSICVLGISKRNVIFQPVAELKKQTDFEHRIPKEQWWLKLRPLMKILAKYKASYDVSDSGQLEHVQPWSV

The next assay deals with Ephrin type-A receptor 5 (Homo sapiens, UniProt P54756).
Ephrin type-A receptor 5, sequence (P54756 whole entry): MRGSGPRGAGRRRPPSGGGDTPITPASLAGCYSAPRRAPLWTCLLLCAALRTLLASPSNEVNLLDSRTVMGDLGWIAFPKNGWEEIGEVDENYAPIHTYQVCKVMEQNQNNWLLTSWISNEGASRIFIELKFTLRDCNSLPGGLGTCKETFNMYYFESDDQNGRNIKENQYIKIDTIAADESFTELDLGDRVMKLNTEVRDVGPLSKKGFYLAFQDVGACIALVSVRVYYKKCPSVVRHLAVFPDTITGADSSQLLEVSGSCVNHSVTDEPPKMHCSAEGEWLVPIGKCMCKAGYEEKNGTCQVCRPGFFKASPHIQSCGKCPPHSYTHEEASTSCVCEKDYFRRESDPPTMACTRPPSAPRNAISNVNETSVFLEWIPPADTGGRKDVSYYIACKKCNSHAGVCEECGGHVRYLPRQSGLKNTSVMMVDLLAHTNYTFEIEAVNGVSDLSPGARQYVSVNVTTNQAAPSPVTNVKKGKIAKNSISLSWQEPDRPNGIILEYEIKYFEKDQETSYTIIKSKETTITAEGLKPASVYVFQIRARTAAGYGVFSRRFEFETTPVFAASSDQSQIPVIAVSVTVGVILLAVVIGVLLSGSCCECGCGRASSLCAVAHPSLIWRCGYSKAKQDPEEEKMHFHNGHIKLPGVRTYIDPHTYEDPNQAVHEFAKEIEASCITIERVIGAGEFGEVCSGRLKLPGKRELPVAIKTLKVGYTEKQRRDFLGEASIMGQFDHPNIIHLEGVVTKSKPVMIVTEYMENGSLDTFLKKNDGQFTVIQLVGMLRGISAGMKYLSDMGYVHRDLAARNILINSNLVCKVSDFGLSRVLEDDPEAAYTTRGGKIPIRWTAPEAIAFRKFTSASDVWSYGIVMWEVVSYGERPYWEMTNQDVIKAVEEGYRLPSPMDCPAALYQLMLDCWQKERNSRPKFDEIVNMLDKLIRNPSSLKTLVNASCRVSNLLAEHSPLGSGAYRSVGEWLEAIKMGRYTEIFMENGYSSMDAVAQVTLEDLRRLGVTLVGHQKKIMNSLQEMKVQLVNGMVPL

The term Kd denotes the constant that tells how readily two partners part at equilibrium.
Note: in the data inactive means no Kd found up to 30 µM.

Calcium/calmodulin-dependent protein kinase type II subunit delta, sequence (Q13557 whole entry): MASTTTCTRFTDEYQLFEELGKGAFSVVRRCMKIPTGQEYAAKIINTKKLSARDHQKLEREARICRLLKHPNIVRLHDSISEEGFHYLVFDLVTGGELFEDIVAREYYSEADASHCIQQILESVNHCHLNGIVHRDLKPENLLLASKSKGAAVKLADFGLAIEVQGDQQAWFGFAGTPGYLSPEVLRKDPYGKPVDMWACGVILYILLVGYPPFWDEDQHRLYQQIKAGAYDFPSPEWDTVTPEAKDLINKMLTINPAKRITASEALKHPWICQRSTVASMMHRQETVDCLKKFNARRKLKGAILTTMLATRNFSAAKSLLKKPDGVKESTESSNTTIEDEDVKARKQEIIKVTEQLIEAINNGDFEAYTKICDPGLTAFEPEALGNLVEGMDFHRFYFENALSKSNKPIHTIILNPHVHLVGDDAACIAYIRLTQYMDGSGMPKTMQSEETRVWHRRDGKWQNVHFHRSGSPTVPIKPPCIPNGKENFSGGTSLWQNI

Regarding `CCn1cc(-c2ccnc3[nH]c(-c4cccc(CN(C)C)c4)cc23)c(-c2ccc(NC(=O)N(C)C)cc2)n1` [GSK-1070916], the Kd in assay [1], in assay [2], in assay [3], in assay [4], in assay [5] and in assay [6] was > 30 µM (inactive) each time. Also, on Ephrin type-A receptor 5, the Kd is > 30 µM (inactive).

On to `COc1ccc(S(=O)(=O)N(C(C)=O)c2ccccc2/C=C/c2cc[n+]([O-])cc2)cc1` [HMN-214], for which the Kd in assay [1], in assay [2], in assay [3], in assay [4], in assay [5] and in assay [6] was > 30 µM (inactive) each time. Besides, the Kd on Ephrin type-A receptor 5 is > 30 µM (inactive).

Turning to `CNC(=O)c1cccc2cc(Oc3ccnc4cc(OCC5(N)CC5)c(OC)cc34)ccc12` [LUCITANIB], the Kd in assay [1], in assay [2], in assay [3], in assay [4], in assay [5] and in assay [6] was > 30 µM (inactive) throughout. In addition, the Kd on Ephrin type-A receptor 5 is > 30 µM (inactive).

On to `CNC(=O)c1nn(C)c2c1C(C)(C)Cc1cnc(Nc3ccc(N4CCN(C)CC4)cc3)nc1-2` [MILCICLIB], for which the Kd in assay [1] is > 30 µM (inactive); in assay [2], > 30 µM (inactive); in assay [3] it was > 30 µM (inactive); in assay [4], 0.685 µM (active); in assay [5], 0.008 µM (active); in assay [6] it was > 30 µM (inactive). Moreover, the dissociation constant (Kd) on Ephrin type-A receptor 5 is 0.147 µM (active).

On to `NC1(c2ccc(-c3nc4ccn5c(=O)[nH]nc5c4cc3-c3ccccc3)cc2)CCC1` [MK-2206], for which the Kd in assay [1], in assay [2], in assay [3], in assay [4], in assay [5] and in assay [6] was > 30 µM (inactive) each time. Further, the Kd on Ephrin type-A receptor 5 is > 30 µM (inactive).

Take `FC(F)(F)c1ccc(/C=C/c2nc(COc3ccc(CCCCn4ccnn4)cc3)co2)cc1` [MUBRITINIB]: the Kd in assay [1], in assay [2], in assay [3], in assay [4], in assay [5] and in assay [6] was > 30 µM (inactive) each time. Further, the Kd on Ephrin type-A receptor 5 is > 30 µM (inactive).

Take `COc1ncc(-c2ccc3nccc(-c4ccnnc4)c3c2)cc1NS(=O)(=O)c1ccc(F)cc1F` [OMIPALISIB]: the Kd in assay [1], in assay [2], in assay [3], in assay [4], in assay [5] and in assay [6] was > 30 µM (inactive) each time. Further, the Kd at Ephrin type-A receptor 5 was > 30 µM (inactive).

Regarding `CCOc1cc2ncc(C#N)c(Nc3ccc(F)c(Cl)c3)c2cc1NC(=O)/C=C/CN(C)C` [PELITINIB], the Kd in assay [1] was > 30 µM (inactive); in assay [2], > 30 µM (inactive); in assay [3] it was > 30 µM (inactive); in assay [4] it was 1.19 µM (active); in assay [5], > 30 µM (inactive); in assay [6], > 30 µM (inactive). At Ephrin type-A receptor 5, the Kd is > 30 µM (inactive).

Regarding `CCCCCCCCCCCCCCCCCCOP(=O)([O-])OC1CC[N+](C)(C)CC1` [PERIFOSINE], the Kd in assay [1], in assay [2], in assay [3], in assay [4], in assay [5] and in assay [6] was > 30 µM (inactive) each time. In addition, the Kd on Ephrin type-A receptor 5 is > 30 µM (inactive).

Consider `Cc1cnc(NC(=O)Nc2cc(Br)c(C)cc2OC[C@@H]2CNCCO2)cn1` [RABUSERTIB], for which the Kd in assay [1], in assay [2], in assay [3], in assay [4], in assay [5] and in assay [6] was > 30 µM (inactive) in each case. At Ephrin type-A receptor 5, the Kd was > 30 µM (inactive).

For `CNC(=O)c1cc(Oc2ccc(NC(=O)Nc3cc(C(C)(C)C)nn3-c3ccc4ncccc4c3)c(F)c2)ccn1` [REBASTINIB], the dissociation constant Kd in assay [1] was 16.1 µM; in assay [2], 0.41 µM (active); in assay [3], > 30 µM (inactive); in assay [4] it was 0.381 µM (active); in assay [5], 2.14 µM (active); in assay [6], > 30 µM (inactive). The Kd at Ephrin type-A receptor 5 was > 30 µM (inactive).

With `N#CC1(c2ccc(NC(=O)c3cccnc3NCc3ccncc3)cc2)CCCC1` [RIVOCERANIB], the Kd in assay [1], in assay [2], in assay [3], in assay [4], in assay [5] and in assay [6] was > 30 µM (inactive) throughout. Besides, the Kd on Ephrin type-A receptor 5 is > 30 µM (inactive).

For the compound `O=c1[nH]ccc2cc(OC3CCNCC3)ccc12` [SAR-407899 FREE BASE], the Kd in assay [1], in assay [2], in assay [3], in assay [4], in assay [5] and in assay [6] was > 30 µM (inactive) in each case. Moreover, the Kd on Ephrin type-A receptor 5 is > 30 µM (inactive).

On to `CN1CCN(CCOc2cc(OC3CCOCC3)c3c(Nc4c(Cl)ccc5c4OCO5)ncnc3c2)CC1` [SARACATINIB], for which the Kd in assay [1] is > 30 µM (inactive); in assay [2], 39.6 µM (active); in assay [3] it was > 30 µM (inactive); in assay [4] it was 0.016 µM (active); in assay [5] it was > 30 µM (inactive); in assay [6], > 30 µM (inactive). Moreover, the Kd at Ephrin type-A receptor 5 is 2.38 µM (active).
